Measured values from patent US8557816B2, “Aurora kinase modulators and method of use” (Amgen Inc., priority 2007, dated 2013).

Columns and labels:
AuroraA-TPX2 = target: T1, AuroraA-TPX2 (Homo sapiens, UniProt O14965); assay: AuroraA-TPX2 Homogeneous Time Resolved Fluorescent (HTRF) kinase assay; type: biochemical; conditions: average; read-out: AurA_IC50_IP (uM Avg)
T1 construct: 20 μL of AuroraA-TPX2 KD GST for a final volume of about 41 μL; GST
T1 sequence (O14965 133-383 limits assumed): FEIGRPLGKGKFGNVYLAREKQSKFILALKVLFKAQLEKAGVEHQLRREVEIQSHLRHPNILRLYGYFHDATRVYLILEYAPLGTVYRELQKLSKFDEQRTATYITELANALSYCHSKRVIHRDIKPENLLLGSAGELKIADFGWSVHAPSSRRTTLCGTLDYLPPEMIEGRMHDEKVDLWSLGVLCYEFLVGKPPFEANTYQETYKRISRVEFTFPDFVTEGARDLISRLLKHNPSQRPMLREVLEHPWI
T1 sequence (Q9ULW0 1-43 partner limits assumed): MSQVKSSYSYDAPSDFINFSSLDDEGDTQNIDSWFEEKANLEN
Summary of the method: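 HTRF read-out (Eu 615 nm to APC 655 nm) of phosphorylated biotin-PLK, detected with 0.02 nM europium anti-phosphoPLK antibody and 0.0005 mg/mL SA-APC after overnight equilibration.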

AuroraB = target: T2, AuroraB (Homo sapiens, UniProt Q96GD4); assay: AuroraB Homogeneous Time Resolved Fluorescent (HTRF) kinase assay; type: biochemical; conditions: average; read-out: AurB_IC50_IP (uM Avg)
T2 construct: 20 μL of AuroraB FL H is for a final volume of 41 μL; His
T2 sequence (Q96GD4 whole entry): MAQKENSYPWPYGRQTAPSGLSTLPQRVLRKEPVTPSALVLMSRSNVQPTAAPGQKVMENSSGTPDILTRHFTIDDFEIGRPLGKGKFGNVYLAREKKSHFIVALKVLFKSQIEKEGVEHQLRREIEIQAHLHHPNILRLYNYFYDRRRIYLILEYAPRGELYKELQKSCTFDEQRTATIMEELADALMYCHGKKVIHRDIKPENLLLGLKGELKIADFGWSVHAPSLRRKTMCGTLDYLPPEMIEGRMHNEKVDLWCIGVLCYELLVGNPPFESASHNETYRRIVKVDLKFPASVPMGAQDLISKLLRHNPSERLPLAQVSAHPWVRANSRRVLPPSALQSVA
Summary of the method: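 Read-out is time-resolved FRET between europium anti-phospho-H3 antibody and streptavidin-APC, added in EDTA buffer to stop the reaction and equilibrated about 60 min (ex 320, em 615 and 655 nm). Preceding reaction: ~90 min, full-length enzyme, ATP, 0.1 μM biotin-Histone H3 substrate, Mg/Mn HEPES buffer pH 7.5.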

SMILES | IC50 (AuroraA-TPX2) [µM] | IC50 (AuroraB) [µM]
COc1cc2nccc(Oc3ccc(Nc4nnc(-c5cccc(COC(C)=O)n5)c5ccccc45)cc3)c2cc1OC [compound 113, (6-(4-((4-((6,7-bis(methyloxy)-4-quinolinyl)oxy)phenyl)amino)-1-phthalazinyl)-2-pyridinyl)methyl acetate] | 0.014 | 0.011
COc1cnc2c(Oc3ccc(Nc4nnc(-c5ccc(C(F)(F)F)c(Cl)c5)c5ccccc45)cc3)ccnc2c1 [compound 172, 4-(3-chloro-4-(trifluoromethyl)phenyl)-N-(4-((7-(methyloxy)-1,5-naphthyridin-4-yl)oxy)phenyl)-1-phthalazinamine] | 0.039 | 0.017
N#Cc1cnc2c(Oc3ccc(Nc4nnc(-c5ccc(Cl)cc5)c5ccccc45)cc3)ccnc2c1 [compound 265, 8-((4-((4-(4-chlorophenyl)-1-phthalazinyl)amino)phenyl)oxy)-1,5-naphthyridine-3-carbonitrile] | 0.113 | 0.009
COc1cc2nccc(Oc3ccc(Nc4nnc(-n5nc(C)cc5C)c5ccccc45)cc3F)c2cc1OC [compound 77, N-(4-((6,7-bis(methyloxy)-4-quinolinyl)oxy)-3-fluorophenyl)-4-(3,5-dimethyl-1H-pyrazol-1-yl)-1-phthalazinamine] | 0.701 | 0.079
CS(=O)(=O)CCOc1ccc2nccc(Sc3ccc(Nc4nnc(-c5ccc(Cl)cc5)c5ccccc45)cc3)c2c1 [Example 390, 4-(4-Chlorophenyl)-N-(4-(6-(2-(methylsulfonyl)ethoxy)quinolin-4-ylthio)phenyl)phthalazin-1-amine] | > 125 | > 125
c1ccc(-c2nnc(Nc3ccc(Oc4ccnc5ccnn45)cc3)c3ccccc23)cc1 [compound 370, 4-phenyl-N-(4-(pyrazolo[1,5-a]pyrimidin-7-yloxy)phenyl)phthalazin-1-amine] | 0.505 | 0.594
O=C(c1cc2nccc(Sc3ccc(Nc4nnc(-c5ccc(Cl)cc5)c5ccccc45)cc3)c2s1)N1CCOCC1 [compound 314, (7-(4-(4-(4-chlorophenyl)phthalazin-1-ylamino)phenylthio)thieno[3,2-b]pyridin-2-yl)(morpholino)methanone] | 0.058 | 0.057
COc1cc2nccc(Oc3ccc(Nc4nnc(-c5ccccc5)c5ccccc45)cc3)c2cc1C(N)=O [compound 225, 7-(methyloxy)-4-((4-((4-phenyl-1-phthalazinyl)amino)phenyl)oxy)-6-quinolinecarboxamide] | 0.023 | 0.004
COc1cnc2c(Sc3ccc(Nc4nnc(-c5ccc(Cl)cn5)c5ccccc45)cc3)ccnc2c1 [compound 304, 4-(5-chloro-2-pyridinyl)-N-(4-((7-(methyloxy)-1,5-naphthyridin-4-yl)thio)phenyl)-1-phthalazinamine] | 0.013 | 0.019
Clc1ccc(-c2nnc(Nc3ccc(Sc4ccnc5ccccc45)cc3)c3ccccc23)nc1 [compound 365, 4-(5-chloropyridin-2-yl)-N-(4-(quinolin-4-ylthio)phenyl)phthalazin-1-amine] | 0.016 | 0.011
COc1cnc2c(Oc3ccc(Nc4nnc(-c5csc6ccccc56)c5ccccc45)cc3)ccnc2c1 [compound 169, 4-(1-benzothien-3-yl)-N-(4-((7-(methyloxy)-1,5-naphthyridin-4-yl)oxy)phenyl)-1-phthalazinamine] | 0.01 | 0.009
COc1ccc(-c2nnc(Nc3ccc(Sc4ccnc5cc(OC)cnc45)cc3)c3ccccc23)cc1 [compound 357, N-(4-(7-methoxy-1,5-naphthyridin-4-ylthio)phenyl)-4-(4-methoxyphenyl)phthalazin-1-amine] | 0.029 | 0.012
COc1ccc2c(Oc3ccc(Nc4nnc(-c5ccccc5)c5ccccc45)cc3)c(F)cnc2c1 [compound 164, N-(4-((3-fluoro-7-(methyloxy)-4-quinolinyl)oxy)phenyl)-4-phenyl-1-phthalazinamine] | 0.04 | 0.003
COc1cnc2c(Oc3ccc(Nc4nnc(-c5cc6ccccc6n5C)c5ccccc45)cc3)ccnc2c1 [compound 143, 4-(1-methyl-1H-indol-2-yl)-N-(4-((7-(methyloxy)-1,5-naphthyridin-4-yl)oxy)phenyl)-1-phthalazinamine] | 0.012 | 0.009
CCc1cc(-c2ccc(Cl)cc2)nnc1Nc1ccc(Oc2ccnc3cc(OC)cnc23)cc1 [compound 256, 6-(4-chlorophenyl)-4-ethyl-N-(4-((7-(methyloxy)-1,5-naphthyridin-4-yl)oxy)phenyl)-3-pyridazinamine] | 0.012 | 0.003
COc1cnc2c(Oc3cnc(Nc4nnc(-c5ccccc5)c5ccccc45)nc3)ccnc2c1 [compound 84, N-(5-((7-(methyloxy)-1,5-naphthyridin-4-yl)oxy)-2-pyrimidinyl)-4-phenyl-1-phthalazinamine] | 0.16 | 0.002
CCc1cc(-c2ccc(C)cc2)nnc1Nc1ccc(Oc2ccnc3cc(OC)cnc23)cc1 [compound 307, 4-ethyl-N-(4-((7-(methyloxy)-1,5-naphthyridin-4-yl)oxy)phenyl)-6-(4-methylphenyl)-3-pyridazinamine] | 0.022 | 0.006
COc1cnc2c(Oc3ccc(Nc4nnc(-c5cc(C)ccn5)c5ccccc45)cc3)ccnc2c1 [compound 116, N-(4-((7-(methyloxy)-1,5-naphthyridin-4-yl)oxy)phenyl)-4-(4-methyl-2-pyridinyl)-1-phthalazinamine] | 0.062 | 0.011
COc1cnc2c(Oc3ccc(Nc4nnc(-c5ccc6c(c5)OCCN6C)c5ccccc45)cc3)ccnc2c1 [compound 157, 4-(4-methyl-3,4-dihydro-2H-1,4-benzoxazin-7-yl)-N-(4-((7-(methyloxy)-1,5-naphthyridin-4-yl)oxy)phenyl)-1-phthalazinamine] | 0.012 | 0.005
c1ccc(-c2nnc(Nc3ccc(Oc4ccnc5ccc(N6CCOCC6)cc45)cc3)c3ccccc23)cc1 [compound 264, N-(4-((6-(4-morpholinyl)-4-quinolinyl)oxy)phenyl)-4-phenyl-1-phthalazinamine] | 0.139 | 0.016
COc1ccc2c(Oc3ccc(Nc4nnc(-c5cccc(OC)n5)c5ccccc45)cc3)ccnc2c1 [compound 100, 4-(6-(methyloxy)-2-pyridinyl)-N-(4-((7-(methyloxy)-4-quinolinyl)oxy)phenyl)-1-phthalazinamine] | 0.038 | 0.006
COc1ccc2c(Oc3ccc(Nc4nnc(-c5cc(C)ccn5)c5ccccc45)cc3)ccnc2c1 [compound 118, N-(4-((7-(methyloxy)-4-quinolinyl)oxy)phenyl)-4-(4-methyl-2-pyridinyl)-1-phthalazinamine] | 0.136 | 0.009

The next lines start with the values.

IC50 (AuroraA-TPX2) [µM] | IC50 (AuroraB) [µM] | SMILES
0.028 | 0.012 | COc1cc2ncnc(Sc3ccc(Nc4nnc(-c5ccc(Cl)cc5)c5ccccc45)cc3)c2cc1OC [compound 418]
0.021 | 0.012 | COc1cnc2c(Sc3ccc(Nc4nnc(N5CCN6CC(F)(F)C[C@H]6C5)c5ccccc45)cc3)ccnc2c1 [compound 601]
> 125 | 0.013 | Fc1ccc2c(Oc3ccc(Nc4nnc(-c5ccc(Cl)cc5)c5ccccc45)cc3)ccnc2c1 [compound 455]
1.13 | 0.236 | COc1cc(OC)c2c(Sc3ccc(Nc4nnc(-c5ccccc5)c5ccccc45)cc3)ncnc2c1 [compound 581]
2.82 | 0.324 | COc1cnc2c(Oc3ccc(Nc4nnc(N5CCN(S(C)(=O)=O)CC5)c5ccccc45)cc3)ccnc2c1 [compound 607]
0.042 | 0.035 | COc1cc(F)cc2nccc(Oc3ccc(Nc4nnc(-c5ccc(Cl)cc5)c5ccccc45)cc3)c12 [compound 437]
0.014 | 0.01 | COc1cnc2c(Sc3ccc(Nc4nnc(N5CCN6C[C@H](F)C[C@H]6C5)c5ccccc45)cc3)ccnc2c1 [compound 600]
0.217 | 0.033 | COc1cnc2c(Oc3ccc(Nc4nnc(N5CC[C@@H]6CCCC[C@H]6C5)c5ccccc45)cc3)ccnc2c1 [compound 587]
0.526 | 0.082 | COCc1cc(-c2ccccc2)nnc1Nc1ccc(Oc2ccnc3cc(OC)cnc23)cc1 [compound 593]
0.585 | 0.596 | COc1cc(F)cc2nccc(Sc3ccc(Nc4nnc(-c5cc(C)cs5)c5ccccc45)cc3)c12 [compound 440]
1.04 | 0.374 | FC(F)(F)Oc1ccc2c(Oc3ccc(Nc4nnc(-c5ccccc5)c5ccccc45)cc3)ccnc2c1 [compound 496]
0.027 | 0.02 | COc1cc(OC)c2c(Oc3ccc(Nc4nnc(-c5ccc(Cl)cc5)c5ccccc45)cc3)ncnc2c1 [compound 590]
0.102 | 0.105 | COc1cnc2c(Sc3ccc(Nc4nnc(N5CCCC(C)(C)C5)c5ccccc45)cc3)ccnc2c1 [compound 555]
